Experimental data as given in ChEMBL document CHEMBL1150523, “Synthesis of 1-(2-Deoxy-2-C-fluoromethyl--D-arabinofuranosyl)cytosine as a potential antineoplastic agent” (Bioorg Med Chem Lett, 1994).
≈ marks a conversion by molar mass, not a printed value.

Assays:
Assay type in all cases: functional, cell-based
PC-8 = test: Inhibitory concentration against lung adenocarcinoma PC-8 cell line for cytotoxicity was determined; conditions: Homo sapiens
A-375 = test: Inhibitory concentration against melanoma A-375 cell line for cytotoxicity was determined; conditions: Homo sapiens
COLO 320DM = test: Inhibitory concentration against colon adenocarcinoma COLO 320DM cell line for cytotoxicity was determined; conditions: Homo sapiens
[1] = test system: KATO III stomach cancer cell line; test: Inhibitory concentration against stomach adenocarcinoma KATO-III cell line for cytotoxicity was determined; conditions: Homo sapiens
KB = test: Inhibitory concentration against solid tumor KB cell line for cytotoxicity was determined; conditions: Homo sapiens
CCRF-HSB-2 = test: Inhibitory concentration against human T-cell line CCRF-HSB-2 for cytotoxicity was determined

SMILES: Nc1ccn([C@@H]2O[C@H](CO)C(O)C2CF)c(=O)n1 (single isomer, unassigned)
- IC50 (PC-8): 26 µg/mL (≈ 100 µM)
- IC50 (A-375): 1.6 µg/mL (≈ 6.17 µM)
- IC50 (COLO 320DM): 1.6 µg/mL (≈ 6.17 µM)
- IC50 [1]: 11 µg/mL (≈ 42.4 µM)
- IC50 (KB): 4.47 µg/mL (≈ 17.2 µM)
- IC50 (CCRF-HSB-2): 0.03 µg/mL (≈ 0.116 µM)
